Several values for one entry are separate records, joined by “and”; a condition that tells them apart may be missing. Identical values can stand only once.
Key:
[1] = First set of clinical in vivo experiments, fasting blood test (Example 2.1); design: species or system human; settings: for Headache after stopping twice a day administration: subjects S1-S3 (N = 3), 20-48 hours after last administration
Description: In the first set of experiments presented in Example 2.1 all the blood measurements were conducted next day after last administration of DGAcs. In the longer experiments doses (3-5 mg/kg) were typically taken once a day (preferably in the evening before going to bed). In shorter 1-4 day experiments doses were taken twice a day, in the morning and before going to bed. In all experiments in Example 2.2 the last DGAcs dose was double in size (some 8 mg/kg), and it was taken in the same morning as the collection of blood samples. Relatively high dose and short time to measurement was chosen in order to see clearer dose response in gene expression from peripheral leukocytes, and also from collected plasma samples.
Eight (8) persons completed controlled clinical testing with standard 10-12 hour fasting diet (f) blood test (sample analytics by United Medix Laboratories, Finland). There were four different types of clinical tests: first a 3 week test with low dose of DGA (N=3), secondly one 11 day test with bigger dose (N=1), and finally a 4 day test with high dose (N=4) and with low dose of DGA (N=2). Subjects 1 and 4 (in table 3) did the first three week test and then some months later also the separate 4 day test.
Daily doses varied from 3-4 mg/kg/day in 3 week test to 6 mg/kg twice a day in 4 day test. General rule in the studies was that the shorter the period the higher the dose. In three week clinical tests fasting blood standard lipid panel and other basic readings were measured at the beginning and at the end of the test period.
In the 4 day tests very wide fasting blood panel consisting of 25 different metrics was measured (see table 3 below), and additionally for some participants full blood count to measure more precise effect on erythrocytes and hemoglobin was carried out.
Unlike in hepatocytes study (Example 1) clinical experiments were conducted in a fasting diet situation. Challenges for obtaining meaningful health indications from DGAcs administration arises from the fact that the study persons (aged 41-73) were all healthy volunteers, i.e. the blood values were mostly at very good levels, and thus improvements from the control are hard to achieve. Nevertheless the results from clinical testing show clear signs on the efficacy of DGA in improving systemic redox state of especially the cardiovascular system and also clear indications of increased overall metabolic flux. Specific markers for functioning of liver, kidneys, pancreas and spleen show improvement in general (see Table 4).

rat cortical neurons = assay: Protection against NMDA-induced excitotoxity; assay type: cell-based
Description: Cell culture. Cortical neurons were dissected from P1 rats and cultured in 96-well plates up to 7 days in the medium containing: neurobasal medium, 1.5% B27 supplement, 1 mM L-glutamine, penicillin/streptomycin.
Cell Viability/Cytotoxicity. Cell Viability was Detected by LDH Tests Like in Examples 1.1-1.2.
Cell treatment: concentration of DGAcs (10, 50 and 100 μg/ml) was added into cell culture medium at 4 DIV. After 24 h (at 5 DIV) 25% of medium was changed to fresh containing 1.5× concentration of DGAcs. Same treatment (change 25% with 1.5× concentration) was repeated at 6 DIV. The cells were transferred into Mg^2+-free Locke's buffer containing the same concentrations of DGAcs immediately before imaging experiments (at 7 DIV). For controls the same amount of medium was changed without addition of DGAcs.
In analyzing the results from the test set up starting at 7 DIV with 1 h NMDA stimulation (and 23 h follow up period), separate viability loss caused by CR can be taken into account by indexing 25 μM NMDA and 50 μM NMDA groups with the results of 0 NMDA control (see FIG. 14a). […] Even without correction for CR induced viability loss, DGAcs treatment induces very clear protection against NMDA-induced excitotoxity in 50 μM NMDA group (see FIG. 14b: “Viability after 24 hours with 1 h NMDA stimulation, indexed to 0 NMDA”)

[2] = 4 day, 5-6 mg/kg twice a day, healthy lean subjects S1-S4, fasting blood, change from zero control
[3] = 4 day, 5-6 mg/kg twice a day, healthy lean subjects S1-S4, fasting blood, change from zero control, listed as DGA calcium salt
[4] = S4 (healthy person), after 4 day test, fasting blood

For O=C(O)[C@H](O)CO [DGA, D-glyceric acid], the “fS-Trigly, increases in blood triglycerides” value ([1]; 5 subjects) was “Observed 25-50% increases in blood triglycerides”, the “Headache after stopping twice a day administration” value ([1]; 4 day test) was “some symptoms of headache after 20-48” and the “fS-Lactate dehydrogenase (LDH), average decline” value ([1]; healthy volunteers (N = 3), 4 day test) was “some 4%. (Subject 3”. For the same molecule, the “fS-Na (Sodium), average decline” value ([1]; healthy volunteers (N = 4), 4 day test) was ~1.5%, the “fS-Urate (uric acid), average decline” value ([1]; healthy volunteers (N = 6), 4 day test) was “test; average decline some 6%” and the “fS-Cholesterol, average decline” value ([1]; healthy volunteers (N = 8)) was “(only some 3-5%)”. The “fS-Chol.-HDL, average decline” value ([1]; healthy volunteers (N = 8), all periods and doses) was ~6%, the Diuretic effects ([1]; non-acute dose) was “Sodium decline in most” and the “fS-Urea, average decline” value ([1]; non-acute dose) was “some 7-8%”. For the same molecule, the “CK, creatinine kinase, average reduction in values” ([1]; non-acute dose, N = 4) was “On average 25% reduction in values (N = 4)”, the “Bilirubin conj., average reduction in values” ([1]; non-acute dose, N = 6) was “On average 20% reduction in values. N = 6” and the “Bilirubin, average reduction in values” ([1]; non-acute dose, N = 6) was “On average some 20% reduction in values”. For the same molecule, the “fS-Asat, average reduction in values” ([1]; non-acute dose, N = 6) was “On average 15-20% reduction”, the “fS-Fe, average reduction in values” ([1]; non-acute dose, N = 6) was “On average 15% reduction in values. N = 6” and the fS-Alat ([1]; non-acute dose, N = 8, when values were higher in the recommended range) was “improvement was observed, when values”. The “excitotoxity repetition by the private CRO” value (rat cortical neurons; confirmatory study, in line with first results) was “not statistically significant”.
In the case of O.O.O=C([O-])[C@H](O)CO.O=C([O-])[C@H](O)CO.[Ca+2] [DGAcs, D-glyceric acid, calcium salt dehydrate], the “Headache after stopping twice a day administration” value ([1]; 4 day test) is reported as “slight headache”, the “HDL, 4 day change” value [1, 2] is reported as −5% and the “LDL, 4 day change” value [1, 2] is reported as 2%. The “S-Afos, 4 day change” value [1, 2] was −2%, the “S-Alb, 4 day change” value [1, 2] was −2% and the “S-Amyl, 4 day change” value [1, 2] was 65%. The “S-Bil, 4 day change” value [1, 2] was −12.6% and −19%, the “S-Bil-Kj, 4 day change” value [1, 2] was −17% and the “S-CK, 4 day change” value [1, 2] was −22%. The “S-Cal, 4 day change” value [1, 2] was −2%, the “S-GT, 4 day change” value [1, 2] was 11% and the “S-K, 4 day change” value [1, 2] was −2%. For the same molecule, the “S-LD (LDH), 4 day change” value [1, 2] was −4%, the “S-Mg, 4 day change” value [1, 2] was −2% and the “S-Na, 4 day change” value [1, 2] was −1%. For the same molecule, the “S-Uraat, 4 day change” value [1, 2] was −9.9% and −5%, the “fS-Gluk, 4 day change” value [1, 2] was 2% and the “fS-Kol, 4 day change” value [1, 2] was −2%. For the same molecule, the “fS-Krea, 4 day change” value [1, 2] was −4%, the “fS-Pi, 4 day change” value [1, 2] was 18% and the “fS-Transf, 4 day change” value [1, 2] was 10%. For the same molecule, the “fS-Transferr.satur., 4 day change” value [1, 2] was −32%, the “fS-Urea, 4 day change” value [1, 2] was −7% and the “HDL, 4 day change” value [1, 3] was −4.5% and −3.3% and −9.1% and −5.9%. The “S-Afos, 4 day change” value [1, 3] was −2.1% and 0.0% and −5.8% and −6.3%, the “S-Alb, 4 day change” value [1, 3] was −2.2% and 0.0% and the “S-Cal, 4 day change” value [1, 3] was −1.7% and 0.0% and −2.2% and −2.5%. For the same molecule, the “S-LD (LDH), 4 day change” value [1, 3] was −3.7% and −4.2% and −4.8%, the “S-Mg, 4 day change” value [1, 3] was −2.4% and 6.3% and −3.6% and 2.2% and the “S-Na, 4 day change” value [1, 3] was −1.4% and −2.1% and 0.7%. The “S-Uraat, 4 day change” value [1, 3] was −5.2% and −3.2% and −12.0% and −9.9%, the “fS-Kol, 4 day change” value [1, 3] was −1.6% and −5.7% and −6.4% and −3.2% and the “fS-Krea, 4 day change” value [1, 3] was −4.4% and −11.1% and −5.0% and −8.5%. The “AST/ALT (ratio) after treatment” value ([1]; S1, earlier 4 day test (zero control 1.36)) was 1.05, the AST/ALT [1, 4] was 1.10 and the S-Bil [1, 4] was 9.7. It also gave a S-Uraat [1, 4] of 246, a fS-Fe [1, 4] of 20.2 and a fS-Trigly [1, 4] of 1.73. The “average decline in blood urea” value ([1]; after 4 and 4.5 day administrations) was “approximately 9%” and the “protection against NMDA-induced excitotoxity (LDH viability)” value (rat cortical neurons; 25 μM NMDA and 50 μM NMDA groups, 1 h NMDA at 7 DIV + 24 h, indexed to 0 NMDA) was “very clear and significant protection”.

— patent US12083084B2, “Method for enhancing energy production and metabolism in cells” (REPLICON HEALTH OY, priority 2013, dated 2024)
